The record followed here is PMC2923778 (Journal of Molecular Biology, 2010).

In one assay the target is T1, mSPSB4ΔSB (Mus musculus, UniProt Q8R5B6).
T1 construct: mSPSB1 and mSPSB4 lacking the C-terminal SOCS box region (mSPSB1ΔSB and mSPSB4ΔSB); GST (cleaved yes); made in house; host or cells: E. coli Origami B(DE3) pLysS
T1 sequence (Q8R5B6 1-233): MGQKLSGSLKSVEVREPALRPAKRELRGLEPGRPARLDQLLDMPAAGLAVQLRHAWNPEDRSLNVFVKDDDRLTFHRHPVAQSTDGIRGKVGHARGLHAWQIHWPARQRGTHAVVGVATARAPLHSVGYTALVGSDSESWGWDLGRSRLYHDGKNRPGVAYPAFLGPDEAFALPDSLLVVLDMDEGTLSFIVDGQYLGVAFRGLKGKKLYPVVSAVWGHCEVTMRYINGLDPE
Description: ITC of hPar-4 peptides with mSPSB4ΔSB. The format is binding, murine. Particulars: 22 °C. The method, then:
(§1) Shorter mSPSB constructs were also used for mSPSB1 and mSPSB4 lacking the C-terminal SOCS box region (mSPSB1ΔSB and mSPSB4ΔSB); they were cloned into pGEX-2T (GE Healthcare, UK). […] Each of the mSPSBΔSB constructs was expressed in Origami B(DE3) pLysS cells (Novagen, Madison, WI) as a GST fusion protein at 20 °C for 24 h with 0.5 mM IPTG added at OD600 = 0.6–0.8.
(§2) ITC measurements on mSPSB proteins were performed at 22 °C using a MicroCalorimetry System (MicroCal, Northhampton, MA). mSPSB1, mSPSB2, and mSPSB4 were prepared by dialyzing against 20 mM Tris, 150 mM sodium chloride, and 2.5 mM calcium chloride at pH 8.0. Measurements on hSPSB proteins were performed at 20 °C using a VP-ITC titration calorimeter (MicroCal). hSPSB1 protein was dialyzed against 50 mM Hepes, pH 7.4, 150 mM NaCl, and 1 mM DTT. hSPSB2 and hSPSB4 proteins were dialyzed against 50 mM Hepes, pH 7.4, 150 mM NaCl, and 0.5 mM TCEP. Peptides for each experiment were dissolved in the corresponding dialysis buffers. ITC measurements were routinely carried out by titrating 100 μM peptide solution into 10 μM protein. Dilution enthalpies were determined separately by titrating peptide into buffer and used to correct the enthalpies of the binding of protein and peptide. Data were analyzed using a single binding site model implemented in the Origin software package provided with the instrument.

A further assay concerns the target mSPSB4ΔSB (murine). Description: ITC; 100 μM peptide titrated into 10 μM mSPSB protein; 22 °C; 20 mM Tris, 150 mM sodium chloride, 2.5 mM calcium chloride, pH 8.0; single binding site model. A general note: In ITC the heat of successive injections is recorded.
Another assay addresses T2, mSPSB1ΔSB (Mus musculus, UniProt Q9D5L7).
T2 construct: mSPSB1 and mSPSB4 lacking the C-terminal SOCS box region (mSPSB1ΔSB and mSPSB4ΔSB); GST (cleaved yes); made in house; host or cells: E. coli Origami B(DE3) pLysS
T2 sequence (Q9D5L7 1-231): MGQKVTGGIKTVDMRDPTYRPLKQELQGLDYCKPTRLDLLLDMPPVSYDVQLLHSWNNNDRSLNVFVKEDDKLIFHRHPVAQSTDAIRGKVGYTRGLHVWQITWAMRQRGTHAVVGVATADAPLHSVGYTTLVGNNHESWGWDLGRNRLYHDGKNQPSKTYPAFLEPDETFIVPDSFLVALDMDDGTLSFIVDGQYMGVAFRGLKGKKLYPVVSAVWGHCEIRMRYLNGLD
Put plainly: ITC of hPar-4 peptides with mSPSB1ΔSB. As to conditions: 22 °C. The format is binding, murine.
Excerpt: Shorter mSPSB constructs were also used for mSPSB1 and mSPSB4 lacking the C-terminal SOCS box region (mSPSB1ΔSB and mSPSB4ΔSB); they were cloned into pGEX-2T (GE Healthcare, UK). The shorter mSPSB2 construct excluded the first 11 residues at the N-terminus and the C-terminus SOCS box [mSPSB2(12–224)]. mSPSB2(12–224) and mutants used in this study have been described previously.[21] Each of the mSPSBΔSB constructs was expressed in Origami B(DE3) pLysS cells (Novagen, Madison, WI) as a GST fusion protein at 20 °C for 24 h with 0.5 mM IPTG added at OD600 = 0.6–0.8. The mSPSBΔSB proteins were isolated according to the method used for purifying the mSPSB–elonginBC complex.
as §2

The target of a further assay is T3, mSPSB2(12–224) (Mus musculus, UniProt O88838).
T3 construct: mSPSB2(12–224) and mutants used in this study have been described previously; GST (cleaved yes); made in house; host or cells: E. coli Origami B(DE3) pLysS
T3 sequence (O88838 12-224): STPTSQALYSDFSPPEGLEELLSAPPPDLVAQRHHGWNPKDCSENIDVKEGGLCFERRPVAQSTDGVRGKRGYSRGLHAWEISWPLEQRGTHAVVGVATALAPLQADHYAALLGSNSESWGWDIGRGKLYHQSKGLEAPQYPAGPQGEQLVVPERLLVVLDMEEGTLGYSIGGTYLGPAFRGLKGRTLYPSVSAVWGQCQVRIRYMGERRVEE
Description: ITC of hPar-4 peptides with mSPSB2(12–224). The format is binding, murine. Particulars: 22 °C, pH 8.0, nm [sic]. As for the experimental part:
as §1, §2

[1] abbreviates: 20 mM Tris, 150 mM NaCl, 2.5 mM CaCl2, pH 8.0, 100 μM peptide into 10 μM protein, ± standard error of the mean.

Where no end group is shown, it is not given here.

AAANDLNNNLPGGA [[E68D]hPar-4(64–77)] had a Kd on mSPSB4ΔSB (setting [1]) of 47 ± 22 nM. For hPar-4(59–77) (peptide), the Kd with mSPSB4ΔSB (murine) amounted to 189 nM. Turning to “AAANDINNNLPGGA [[E68D,L69I]hPar-4(64–77)]”, the Kd worked out at 33 ± 23 nM on mSPSB4ΔSB (setting [1]) and 40 ± 5 nM at mSPSB1ΔSB (setting [1]).

Turning to AAANELANNLPGGA [[N70A]hPar-4(64–77)], the Kd was above 50000 nM at mSPSB4ΔSB (pH 8.0, nm [sic]); above 50000 nM at mSPSB2(12–224); above 50000 nM at mSPSB1ΔSB (pH 8.0, nm [sic]). As to AAANEINNNLPGGA [[L69I]hPar-4(64–77)], at mSPSB4ΔSB (setting [1]), the affinity, expressed as Kd, was 55 ± 8 nM. Consider AAANELNANLPGGA [[N71A]hPar-4(64–77)], for which the Kd at mSPSB4ΔSB (pH 8.0, nm [sic]) is above 50000 nM; on mSPSB2(12–224), above 50000 nM; on mSPSB1ΔSB (pH 8.0, nm [sic]) it was above 50000 nM.

In the case of `CC(C)C[C@H](NC(=O)[C@H](CCC(=O)O)NC(=O)[C@H](CC(N)=O)NC(=O)[C@H](C)NC(=O)[C@H](C)NC(=O)[C@H](C)NC(=O)[C@H](C)NC(=O)[C@H](C)NC(=O)[C@@H]1CCCN1C(=O)[C@@H](NC(=O)CN)[C@@H](C)O)C(=O)N[C@@H](CC(N)=O)C(=O)N[C@@H](CC(N)=O)C(=O)N[C@@H](C)C(=O)N[C@@H](CC(C)C)C(=O)N1CCC[C@H]1C(=O)NCC(=O)NCC(=O)N[C@@H](C)C(=O)O` [[N72A]hPar-4(59–77)], the Kd on mSPSB2(12–224) was above 50000 nM.

AAANELNNNLPGGA [hPar-4(64–77)]: the Kd at mSPSB4ΔSB (setting [1]) came out at 213 ± 7 nM; on mSPSB1ΔSB (setting [1]), 210 ± 19 nM. Turning to “GTPAAAADNELNNNLPGGA [[A66D]hPar-4(59–77)]”, at mSPSB4ΔSB (setting [1]), binding was characterised by a dissociation constant (Kd) of 255 ± 5 nM.

Broadly, the Kd is the concentration at which binding is half-saturated.
